Data from article PMC5218480 (PLoS ONE, 2017).

Test system: MV-4-11 cells
Experiment: Gene expression microarray analysis (Affymetrix PrimeView) and GSEA
Type: cell-based, human
Parameters: RFU PODN (11730768_x_at) / Fold change /veh PODN (11730768_x_at) / RFU LINC00158 (11744669_a_at) / Fold change /veh LINC00158 (11744669_a_at) / RFU DUSP10 (11751237_a_at) / Fold change /veh DUSP10 (11751237_a_at) / RFU ID3 (11757404_x_at) / Fold change /veh ID3 (11757404_x_at) / RFU PLEKHG5 (11737974_s_at) / Fold change /veh PLEKHG5 (11737974_s_at) / RFU LRRC4B (11730491_at) / Fold change /veh LRRC4B (11730491_at) / RFU GIMAP4 (11747438_a_at) / Fold change /veh GIMAP4 (11747438_a_at) / RFU KRT8 (11758183_x_at) / Fold change /veh KRT8 (11758183_x_at) / RFU CNN1 (11734310_a_at) / Fold change /veh CNN1 (11734310_a_at) / RFU VPS37D (11726825_at) / Fold change /veh VPS37D (11726825_at) / RFU C10orf10 (11716522_x_at) / Fold change /veh C10orf10 (11716522_x_at) / RFU KIR2DL2 /// KIR2DL4 /// KIR2DL5A /// KIR2DL5B /// KIR2DS1 /// KIR2DS2 /// KIR2DS3 /// KIR2DS4 /// KIR3DL3 /// KIR3DL3 /// KIR3DS1 (11738374_at) / Fold change /veh KIR2DL2 /// KIR2DL4 /// KIR2DL5A /// KIR2DL5B /// KIR2DS1 /// KIR2DS2 /// KIR2DS3 /// KIR2DS4 /// KIR3DL3 /// KIR3DL3 /// KIR3DS1 (11738374_at) / RFU C1QL1 (11718748_at) / Fold change /veh C1QL1 (11718748_at) / RFU TMPRSS4 (11747572_a_at) / Fold change /veh TMPRSS4 (11747572_a_at) / RFU HAMP (11756126_x_at) / Fold change /veh HAMP (11756126_x_at) / RFU RNFT2 (11725882_a_at) / Fold change /veh RNFT2 (11725882_a_at) / RFU NR4A2 (11747474_a_at) / Fold change /veh NR4A2 (11747474_a_at) / RFU ABCC12 (11746883_a_at) / Fold change /veh ABCC12 (11746883_a_at) / RFU TMEM136 (11760407_x_at) / Fold change /veh TMEM136 (11760407_x_at) / RFU CLDN22 /// WWC2 (11732394_at) / Fold change /veh CLDN22 /// WWC2 (11732394_at) / RFU HLA-DPB1 (11760878_x_at) / Fold change /veh HLA-DPB1 (11760878_x_at) / RFU SPINT1 (11716480_a_at) / Fold change /veh SPINT1 (11716480_a_at) / RFU GAP43 (11754022_s_at) / Fold change /veh GAP43 (11754022_s_at) / RFU A4GNT (11735810_at) / Fold change /veh A4GNT (11735810_at) / RFU PRB3 (11715151_x_at) / Fold change /veh PRB3 (11715151_x_at) / RFU TUBB4B (11761932_at) / Fold change /veh TUBB4B (11761932_at) / RFU CAPN14 (11732068_a_at) / Fold change /veh CAPN14 (11732068_a_at) / RFU TMCC2 (11721928_a_at) / Fold change /veh TMCC2 (11721928_a_at) / RFU IRGQ (11745062_a_at) / Fold change /veh IRGQ (11745062_a_at) / RFU FAM174B (11720279_a_at) / Fold change /veh FAM174B (11720279_a_at) / RFU TMPRSS4 (11748680_a_at) / Fold change /veh TMPRSS4 (11748680_a_at) / RFU FAM212B (11763350_a_at) / Fold change /veh FAM212B (11763350_a_at) / RFU PLEKHG5 (11743358_a_at) / Fold change /veh PLEKHG5 (11743358_a_at) / RFU ZSCAN30 (11745921_a_at) / Fold change /veh ZSCAN30 (11745921_a_at) / RFU CMKLR1 (11741424_a_at) / Fold change /veh CMKLR1 (11741424_a_at) / RFU LOC101060620 /// MAPK8IP1 (11723275_at) / Fold change /veh LOC101060620 /// MAPK8IP1 (11723275_at) / RFU SPTSSB (11747773_x_at) / Fold change /veh SPTSSB (11747773_x_at) / RFU PRSS12 (11739890_at) / Fold change /veh PRSS12 (11739890_at) / RFU BIN1 (11741810_x_at) / Fold change /veh BIN1 (11741810_x_at) / RFU WNT11 (11732464_a_at) / Fold change /veh WNT11 (11732464_a_at) / RFU C10orf10 (11716521_a_at) / Fold change /veh C10orf10 (11716521_a_at) / RFU C5orf56 (11738089_at) / Fold change /veh C5orf56 (11738089_at) / RFU CYB561 (11721691_x_at) / Fold change /veh CYB561 (11721691_x_at) / RFU ANKRD19P (11752326_a_at) / Fold change /veh ANKRD19P (11752326_a_at) / RFU OR2T12 /// OR2T33 /// OR2T8 (11738714_s_at) / Fold change /veh OR2T12 /// OR2T33 /// OR2T8 (11738714_s_at) / RFU VCAN (11748164_a_at) / Fold change /veh VCAN (11748164_a_at) / RFU JSRP1 (11732532_at) / Fold change /veh JSRP1 (11732532_at) / RFU KRTAP10-11 (11738290_x_at) / Fold change /veh KRTAP10-11 (11738290_x_at) / RFU MYO3A (11730013_a_at) / Fold change /veh MYO3A (11730013_a_at) / RFU EBF3 (11725865_a_at) / Fold change /veh EBF3 (11725865_a_at) / RFU CAMK2N1 (11719241_x_at) / Fold change /veh CAMK2N1 (11719241_x_at) / RFU C5orf56 (11738088_a_at) / Fold change /veh C5orf56 (11738088_a_at) / RFU OLFML3 (11715873_a_at) / Fold change /veh OLFML3 (11715873_a_at) / RFU LOC100653217 /// NTM (11731650_a_at) / Fold change /veh LOC100653217 /// NTM (11731650_a_at) / RFU MAPK11 (11762145_a_at) / Fold change /veh MAPK11 (11762145_a_at) / RFU FIZ1 (11724087_x_at) / Fold change /veh FIZ1 (11724087_x_at) / RFU OASL (11726364_x_at) / Fold change /veh OASL (11726364_x_at) / RFU SOX15 (11748057_x_at) / Fold change /veh SOX15 (11748057_x_at) / RFU CD79A (11719716_a_at) / Fold change /veh CD79A (11719716_a_at) / RFU HIST1H1D (11736915_at) / Fold change /veh HIST1H1D (11736915_at) / RFU CASKIN2 (11723855_a_at) / Fold change /veh CASKIN2 (11723855_a_at) / RFU LOC730098 (11760151_x_at) / Fold change /veh LOC730098 (11760151_x_at) / RFU OR4N2 (11742367_at) / Fold change /veh OR4N2 (11742367_at) / RFU PRRT2 (11749266_a_at) / Fold change /veh PRRT2 (11749266_a_at) / RFU SNX32 (11753110_a_at) / Fold change /veh SNX32 (11753110_a_at) / RFU CDHR5 (11726645_a_at) / Fold change /veh CDHR5 (11726645_a_at) / RFU RCAN1 (11760418_a_at) / Fold change /veh RCAN1 (11760418_a_at) / RFU FAM167A (11723789_a_at) / Fold change /veh FAM167A (11723789_a_at) / RFU FAM26E (11764081_at) / Fold change /veh FAM26E (11764081_at) / RFU ISYNA1 (11749810_s_at) / Fold change /veh ISYNA1 (11749810_s_at) / RFU ACY1 (11761880_at) / Fold change /veh ACY1 (11761880_at) / RFU 11764098_at / Fold change /veh 11764098_at / RFU SAMD14 (11745864_x_at) / Fold change /veh SAMD14 (11745864_x_at) / RFU NPB (11741838_a_at) / Fold change /veh NPB (11741838_a_at) / RFU TMPRSS6 (11731388_a_at) / Fold change /veh TMPRSS6 (11731388_a_at) / RFU KRTAP10-2 (11738614_at) / Fold change /veh KRTAP10-2 (11738614_at) / RFU ARHGAP8 /// PRR5-ARHGAP8 (11727945_x_at) / Fold change /veh ARHGAP8 /// PRR5-ARHGAP8 (11727945_x_at) / RFU KRTAP5-7 /// NADSYN1 (11734609_at) / Fold change /veh KRTAP5-7 /// NADSYN1 (11734609_at) / RFU RASL12 (11751679_a_at) / Fold change /veh RASL12 (11751679_a_at) / RFU CDKN2B (11736163_a_at) / Fold change /veh CDKN2B (11736163_a_at) / RFU PRF1 (11729649_at) / Fold change /veh PRF1 (11729649_at) / RFU, ZNF638 /// ZNF638-IT1 / Fold change vs veh, ZNF638 /// ZNF638-IT1 / RFU, PANK3 / Fold change vs veh, PANK3 / RFU, SH3YL1 / Fold change vs veh, SH3YL1 / RFU, ZEB2 / Fold change vs veh, ZEB2 / RFU, NRIP1 / Fold change vs veh, NRIP1 / RFU, PTTG1IP / Fold change vs veh, PTTG1IP / RFU, CAPN2 / Fold change vs veh, CAPN2 / RFU, MED14 / Fold change vs veh, MED14 / RFU, SNORA58 / Fold change vs veh, SNORA58 / RFU, C1orf63 / Fold change vs veh, C1orf63 / RFU, LRRFIP1 / Fold change vs veh, LRRFIP1 / RFU, NDUFAF7 / Fold change vs veh, NDUFAF7 / RFU, SLC12A2 / Fold change vs veh, SLC12A2 / RFU, IBTK / Fold change vs veh, IBTK / RFU, ESF1 / Fold change vs veh, ESF1 / Fold change vs veh, TMEM50B / RFU, TAOK1 / Fold change vs veh, TAOK1 / RFU, ACBD3 / Fold change vs veh, ACBD3 / RFU, TMA16 / Fold change vs veh, TMA16 / RFU, RWDD3 / Fold change vs veh, RWDD3 / RFU, BCAT1 / Fold change vs veh, BCAT1 / RFU, EDEM3 / Fold change vs veh, EDEM3 / RFU, TMEM33 / Fold change vs veh, TMEM33 / RFU, WDR75 / Fold change vs veh, WDR75 / RFU, AHCTF1 / Fold change vs veh, AHCTF1 / RFU, TFRC / Fold change vs veh, TFRC / RFU, ZDHHC17 / Fold change vs veh, ZDHHC17 / RFU, NOM1 / Fold change vs veh, NOM1 / RFU, ARL8B / Fold change vs veh, ARL8B / RFU, ZBTB11 / Fold change vs veh, ZBTB11 / RFU, TAMM41 / Fold change vs veh, TAMM41 / RFU, KIAA1704 /// LOC100996395 / Fold change vs veh, KIAA1704 /// LOC100996395 / RFU, ING1 / Fold change vs veh, ING1 / RFU, TRMT61B / Fold change vs veh, TRMT61B / RFU, FUBP3 / Fold change vs veh, FUBP3 / RFU, TP53 / Fold change vs veh, TP53 / RFU, TNKS2 / Fold change vs veh, TNKS2 / RFU, ZFP14 / Fold change vs veh, ZFP14 / RFU, ACTR2 / Fold change vs veh, ACTR2 / RFU, PPP3R1 / Fold change vs veh, PPP3R1 / RFU, PIK3R1 / Fold change vs veh, PIK3R1 / RFU, HNRNPA1 / Fold change vs veh, HNRNPA1 / RFU, RNF170 / Fold change vs veh, RNF170 / RFU, ZNF28 / Fold change vs veh, ZNF28 / RFU, RNGTT / Fold change vs veh, RNGTT / RFU, OGT / Fold change vs veh, OGT / RFU, BRD1 / Fold change vs veh, BRD1 / RFU, MARS / Fold change vs veh, MARS / RFU, ZNF655 / Fold change vs veh, ZNF655 / RFU, FAHD1 / Fold change vs veh, FAHD1 / RFU, BDP1 / Fold change vs veh, BDP1 / RFU, LRRCC1 / Fold change vs veh, LRRCC1 / RFU, ARID1A / Fold change vs veh, ARID1A / RFU, ZNF146 / Fold change vs veh, ZNF146 / RFU, ZNF330 / Fold change vs veh, ZNF330 / RFU, GPN3 / Fold change vs veh, GPN3 / RFU, C9orf123 / Fold change vs veh, C9orf123 / RFU, N4BP2L2 / Fold change vs veh, N4BP2L2 / RFU, ARFIP1 / Fold change vs veh, ARFIP1 / RFU, FAM179B / Fold change vs veh, FAM179B / RFU, BCL10 / Fold change vs veh, BCL10 / RFU, UHRF1BP1L / Fold change vs veh, UHRF1BP1L / RFU, BET1 / Fold change vs veh, BET1 / RFU, CNOT2 / Fold change vs veh, CNOT2 / RFU, ZNF268 / Fold change vs veh, ZNF268 / Fold change vs veh, ZNF507 / RFU, DGCR2 / Fold change vs veh, DGCR2 / RFU, WDSUB1 / Fold change vs veh, WDSUB1 / Fold change vs veh, HSP90B1 /// MIR3652 / RFU, ADSS / Fold change vs veh, ADSS / RFU, GK / Fold change vs veh, GK / RFU, ZNF148 / Fold change vs veh, ZNF148 / RFU, TAF9 / Fold change vs veh, TAF9 / RFU, SLC1A5 / Fold change vs veh, SLC1A5 / RFU, SLMO2 / Fold change vs veh, SLMO2 / RFU, ABCC4 / Fold change vs veh, ABCC4 / RFU, LOC101060439 /// RAP1B / Fold change vs veh, LOC101060439 /// RAP1B / RFU, RFX7 / Fold change vs veh, RFX7 / RFU, GTPBP10 / Fold change vs veh, GTPBP10 / RFU, CNEP1R1 / Fold change vs veh, CNEP1R1 / RFU, BIVM-ERCC5 /// ERCC5 / Fold change vs veh, BIVM-ERCC5 /// ERCC5 / RFU, ILF3 / Fold change vs veh, ILF3 / RFU 11762660_at / Fold change /veh 11762660_at / RFU VCAN (11757783_s_at) / Fold change /veh VCAN (11757783_s_at) / RFU DDX43 (11728927_at) / Fold change /veh DDX43 (11728927_at) / RFU KRT8 (11758188_x_at) / Fold change /veh KRT8 (11758188_x_at) / RFU NKD1 (11759106_at) / Fold change /veh NKD1 (11759106_at) / RFU SRD5A1 (11742802_a_at) / Fold change /veh SRD5A1 (11742802_a_at) / RFU TPSAB1 /// TPSB2 (11721975_s_at) / Fold change /veh TPSAB1 /// TPSB2 (11721975_s_at) / RFU GSTM3 (11746129_a_at) / Fold change /veh GSTM3 (11746129_a_at) / RFU IL23R (11737362_x_at) / Fold change /veh IL23R (11737362_x_at) / RFU TMEM51 (11727254_a_at) / Fold change /veh TMEM51 (11727254_a_at) / RFU PIWIL2 (11732686_x_at) / Fold change /veh PIWIL2 (11732686_x_at) / RFU ORM1 (11744905_x_at) / Fold change /veh ORM1 (11744905_x_at) / RFU CCDC152 (11743942_at) / Fold change /veh CCDC152 (11743942_at) / RFU ECM1 (11717891_a_at) / Fold change /veh ECM1 (11717891_a_at) / RFU IL23R (11748794_a_at) / Fold change /veh IL23R (11748794_a_at) / RFU TNFAIP8L3 (11732012_x_at) / Fold change /veh TNFAIP8L3 (11732012_x_at) / RFU MBOAT4 (11741988_at) / Fold change /veh MBOAT4 (11741988_at) / RFU 11764193_at / Fold change /veh 11764193_at / RFU TMEM53 (11763286_at) / Fold change /veh TMEM53 (11763286_at) / RFU MAGEB2 (11727129_at) / Fold change /veh MAGEB2 (11727129_at) / RFU TMEM200A (11744735_a_at) / Fold change /veh TMEM200A (11744735_a_at) / RFU CCDC152 (11751479_a_at) / Fold change /veh CCDC152 (11751479_a_at) / RFU FAM211A (11726209_a_at) / Fold change /veh FAM211A (11726209_a_at) / RFU RGS16 (11746705_a_at) / Fold change /veh RGS16 (11746705_a_at) / RFU VCAN (11755009_s_at) / Fold change /veh VCAN (11755009_s_at) / RFU RHOB (11743442_s_at) / Fold change /veh RHOB (11743442_s_at) / RFU RGS16 (11720943_a_at) / Fold change /veh RGS16 (11720943_a_at) / RFU RGS16 (11720944_at) / Fold change /veh RGS16 (11720944_at) / RFU, VPS4B / Fold change vs veh, VPS4B / RFU, CREB1 / Fold change vs veh, CREB1 / RFU, DNAJC13 / Fold change vs veh, DNAJC13 / RFU, GNAQ / Fold change vs veh, GNAQ / RFU, CDK5R1 / Fold change vs veh, CDK5R1 / RFU, ZRANB3 / Fold change vs veh, ZRANB3 / RFU, CUL4A / Fold change vs veh, CUL4A / RFU, CCNY / Fold change vs veh, CCNY / RFU, UFL1 / Fold change vs veh, UFL1 / RFU, COG3 / Fold change vs veh, COG3 / RFU, DIAPH2 / Fold change vs veh, DIAPH2 / RFU, SKA2 / Fold change vs veh, SKA2 / RFU, AFF3 / Fold change vs veh, AFF3 / RFU, LMF1 / Fold change vs veh, LMF1 / RFU, IPO11 / Fold change vs veh, IPO11 / RFU, DFFB / Fold change vs veh, DFFB / RFU, FOXP1 / Fold change vs veh, FOXP1 / RFU, CARD8 / Fold change vs veh, CARD8 / RFU, STRN3 / Fold change vs veh, STRN3 / RFU, ADK / Fold change vs veh, ADK / RFU, RASSF2 / Fold change vs veh, RASSF2 / RFU, WIPF1 / Fold change vs veh, WIPF1 / RFU, LARP1B / Fold change vs veh, LARP1B / RFU, RASA1 / Fold change vs veh, RASA1 / RFU, RB1 / Fold change vs veh, RB1 / RFU, PPFIA1 / Fold change vs veh, PPFIA1 / RFU, MAT2A / Fold change vs veh, MAT2A / RFU, CCT5 / Fold change vs veh, CCT5 / RFU, WDR92 / Fold change vs veh, WDR92 / RFU, CUX1 / Fold change vs veh, CUX1 / RFU, TTC7A / Fold change vs veh, TTC7A / RFU, TMEM135 / Fold change vs veh, TMEM135 / RFU, DEPTOR / Fold change vs veh, DEPTOR / RFU, CPM / Fold change vs veh, CPM / RFU, DNAJB6 / Fold change vs veh, DNAJB6 / RFU, CACNA2D3 / Fold change vs veh, CACNA2D3 / RFU, DTX4 / Fold change vs veh, DTX4 / RFU, TFCP2 / Fold change vs veh, TFCP2 / RFU, GMCL1 /// GMCL1P1 / Fold change vs veh, GMCL1 /// GMCL1P1 / RFU, AEBP2 / Fold change vs veh, AEBP2 / RFU, SNHG1 /// SNORD22 /// SNORD25 /// SNORD26 /// SNORD27 /// SNORD28 /// SNORD29 /// SNORD31 / Fold change vs veh, SNHG1 /// SNORD22 /// SNORD25 /// SNORD26 /// SNORD27 /// SNORD28 /// SNORD29 /// SNORD31 / Fold change (Aza/veh), C12orf56 (ProbeSet 11735607_a_at) / Fold change (ACY-1035/veh), C12orf56 (ProbeSet 11735607_a_at) / Fold change (Aza/veh), FGFR1OP (ProbeSet 11751329_s_at) / Fold change (ACY-1035/veh), FGFR1OP (ProbeSet 11751329_s_at) / Fold change (Aza/veh), VPS36 (ProbeSet 11739960_a_at) / Fold change (ACY-1035/veh), VPS36 (ProbeSet 11739960_a_at) / RFU SYPL1 (11715823_x_at) / Fold change /veh SYPL1 (11715823_x_at) / RFU IGFBP7 (11715501_s_at) / Fold change /veh IGFBP7 (11715501_s_at) / RFU REEP3 (11722064_at) / Fold change /veh REEP3 (11722064_at) / RFU IGLL1 (11728026_x_at) / Fold change /veh IGLL1 (11728026_x_at): dose or concentration left out as unconfirmed
Conditions: ProbeSet 11725217_a_at; LIST B

SMILES: Nc1ccc(-c2cccs2)cc1NC(=O)c1ccc2c(c1)cc(C1CC1)n2CCN1CCOCC1 [ACY-1035]
- Fold change vs veh, WDSUB1: 1.02
